The nature of data set [1]: Solubility in PGME, PGMEA and ethyl lactate. It counts as physicochemical. The note with it: for solubility (in words): photopolymerization initiator containing the compound; for Solubility Ethyl lactate: in 100 parts by weight of ethyl lactate; for Solubility Ethyl lactate / Solubility PGMEA / Solubility PGME: room temperature; for Solubility PGMEA: in 100 parts by weight of propylene glycol monomethyl ether acetate; for Solubility PGME: in 100 parts by weight of propylene glycol monomethyl ether. As to the method:
An evaluation for solubility was performed in accordance with the following evaluation criteria based on the dissolution amount.
A: 10 Parts by weight or more of the photopolymerization initiator is dissolved.
B: An amount in the range of from 5 parts by weight or more to less than 10 parts by weight of the photopolymerization initiator is dissolved.
C: An amount in the range of from 2 parts by weight or more to less than 5 parts by weight of the photopolymerization initiator is dissolved.
D: Less than 2 parts by weight of the photopolymerization initiator is dissolved.

Data set [2] can be described thus: Evaluation 1: 20-μm pattern line width of transparent photosensitive composition. The conditions noted are these: for sensitivity to the active energy ray (in words): photopolymerization initiator containing the compound; for 20-μm pattern line width: transparent composition, initiator 0.4 mmol. As to the method:
After that, the mixture was filtered with a membrane filter having an aperture of 5 μm to provide a photosensitive composition.
It should be noted that the fluorene-based compound as a photopolymerization initiator was used in such an amount that its molar quantity was kept constant in the respective examples and comparative examples.
The glass substrate after the application was dried with a fan dryer at 90° C. for 10 minutes. Thus, a coating film (photosensitive layer) was formed. Next, the film was exposed to light having an exposure energy quantity of 5 mJ/cm^2, 10 mJ/cm^2, 20 mJ/cm^2, 40 mJ/cm^2, 60 mJ/cm^2, or 80 mJ/cm^2 by using a high-pressure mercury lamp (manufactured by Karl Suss, trade name: “MASK ALIGNER”) through a negative mask (mask width: 20 μm). Next, the resultant was immersed in a 0.1 wt % aqueous solution of tetramethylammonium hydroxide (TMAH) and then rinsed with pure water. The remaining cured film was subjected to the following evaluation.
(§1) A larger value for the line width means higher sensitivity.

Data set [3] in a line: Average transmittance of composition. It counts as physicochemical. The conditions noted are these: photosensitive composition, quartz cell, optical path length 1 cm. As to the method: The average transmittance (%) of each of the photosensitive resin compositions obtained in Examples 1 to 9, Examples 2-1 to 2-10, and Comparative Examples 1 and 2 in the range of from 400 nm to 700 nm was measured with a spectrophotometer (manufactured by Hitachi High-Technologies Corporation, trade name: “U-3900H”, quartz cell, optical path length; 1 cm).

A short description of data set [4]: Transmittance of transparent cured film. The format is physicochemical. The conditions noted are these: for Average transmittance (700 nm to 400 nm) Transparent cured film / Transmittance (400 nm) Transparent cured film: cured at exposure energy quantity 80 mJ/cm^2; for transparency of photosensitive composition and formed product (in words): photopolymerization initiator containing the compound. The procedure: Transparent cured films were formed by using the photosensitive compositions obtained in Examples 1 to 9, Examples 2-1 to 2-10, and Comparative Examples 1 and 2 in the same manner as in the evaluation 1 except that the exposure energy quantity was set to 80 mJ/cm^2. The transmittance (%) of each of the resultant transparent cured films at 400 nm and the average transmittance (%) thereof in the range of from 400 to 700 nm were measured with a spectrophotometer (manufactured by Hitachi High-Technologies Corporation, trade name: “U-3900H”, quartz cell, optical path length; 1 cm). A higher transmittance at 400 nm means less coloring with a yellow color. In addition, a higher transmittance of a coating film means a higher transmitting property of a pattern to be formed.

A short description of data set [5]: Evaluation 3: 20-μm pattern line width of black photosensitive composition. The note with it: black composition (carbon black, cardo resin), initiator 0.4 mmol.
Text: The mixture was filtered with a membrane filter having an aperture of 5 μm to provide a photosensitive composition.
Photosensitive compositions were each obtained in the same manner as in Example 10 except that the used fluorene-based compound and its usage were changed as shown in Table 5.
Each of the photosensitive compositions obtained in Examples 10 to 15, Examples 2-11 to 2-20, and Comparative Example 3 was applied onto a glass substrate with a spin coater (manufactured by Kyowariken Co., Ltd., trade name: “K-359SD1”) so that its thickness after drying became 1.0 μm. The glass substrate after the application was dried with a fan dryer at 90° C. for 10 minutes. Thus, a coating film (photosensitive layer) was formed. Next, the film was exposed to light having an exposure energy quantity of 10 mJ/cm^2, 20 mJ/cm^2, 40 mJ/cm^2, 60 mJ/cm^2, or 80 mJ/cm^2 by using a high-pressure mercury lamp (manufactured by Karl Suss, trade name: “MASK ALIGNER”) through a negative mask (mask width: 20 μm). Next, the resultant was immersed in a 0.1 wt % aqueous solution of tetra methyl ammonium hydroxide (TMAH) and then rinsed with pure water. The remaining cured film was subjected to the following evaluation. In addition, FIGS. 2, 3, and 6 show microscope photographs of black cured films obtained by using the photosensitive compositions of Examples 10 and 11, and Comparative Example 3, and FIGS. 7 to 11 show microscope photographs of black cured films obtained by using the photosensitive compositions of Examples 2-11, 2-13, 2-14, 2-17, and 2-18.
as §1

Data set [6] can be described thus: Absorption coefficient (absorbance of 0.001% solution in tetrahydrofuran). The format is physicochemical. The conditions noted are these: for Λ max (absorption maximum wavelength): 0.001% (wt/vol) in tetrahydrofuran, from 280 nm to 400 nm; for Absorption coefficient at 365 nm / Absorption coefficient at Λ max: 0.001% (wt/vol) solution in tetrahydrofuran. As to the method:
A 0.001% (wt/vol) solution of each of the compounds 1, 2, 4, 6, 8, 9, 11, 12, 13, 15, 16, D-1, D-3, D-4, D-7, D-8, D-9, D-12, D-14, D-15, D-20, C-1, and C-2 in tetrahydrofuran was prepared, and its absorbance was measured with a spectrophotometer (manufactured by Hitachi High-Technologies Corporation, trade name: “U-3900H”). An absorption maximum wavelength (Amax) at a wavelength of from 280 nm to 400 nm was read from an absorption spectrum obtained with the spectrophotometer.

Data set [7] in a line: Decomposition point by thermal analysis (TG-DTA). The format is physicochemical. The note with it: 5.0 mg. As to the method: The compounds 1, 2, 4, 6, 8, 9, 11, 12, 13, 15, 16, D-1, D-3, D-4, D-7, D-8, D-9, D-12, D-14, D-15, D-20, C-1, and C-2 were each subjected to measurement with a thermal analysis apparatus (TG-DTA) (manufactured by Rigaku Corporation, trade name: “Thermo Plus EVO TG 8120”) by using 5.0 mg thereof.

The mark [8] stands for this setting: exposure energy quantity 10 mJ/cm^2.
[9] abbreviates: exposure energy quantity 20 mJ/cm^2.
[10] abbreviates: exposure energy quantity 40 mJ/cm^2.
Setting [11] is: exposure energy quantity 60 mJ/cm^2.
The mark [12] stands for this setting: exposure energy quantity 80 mJ/cm^2.

`CCCC1(CCC)c2cc(C(=NOC(C)=O)c3ccccc3C)ccc2-c2ccc([N+](=O)[O-])cc21` [Compound 1]: the “solubility (in words)” value in data set [1] is “additionally excellent solubility”. The “sensitivity to the active energy ray (in words)” value (shortened to “sensitivity”) in data set [2] is “additionally high sensitivity to the active energy ray”. For the same compound, the “20-μm pattern line width” value in data set [2] (setting [8]) stood at 20.7; in data set [2] (setting [9]), 21.6; in data set [2] (setting [10]), 22.6; in data set [2] (setting [11]), 23.3; in data set [2] (setting [12]) it was 23.8; in data set [5] (10 mJ/cm^2) it was 20.2. The “20-μm pattern line width” value is given as 21.2 in data set [5] (20 mJ/cm^2), 22.1 in data set [5] (40 mJ/cm^2), 23.2 in data set [5] (60 mJ/cm^2) and 23.3 in data set [5] (80 mJ/cm^2). For the same compound, the “Average transmittance (700 nm to 400 nm) Solution” value in data set [3] is reported as 88.7%. Also, the “Average transmittance (700 nm to 400 nm) Transparent cured film” value in data set [4] was 99.3%. In data set [4], the “Transmittance (400 nm) Transparent cured film” value is reported as 92.0%.
Take `CCCCCCC1(CCCCCC)c2cc(C(=NOC(C)=O)c3ccccc3C)ccc2-c2ccc([N+](=O)[O-])cc21` [Compound 2]: the “sensitivity” value in data set [2] is given as “additionally high sensitivity to the active energy ray”. The “20-μm pattern line width” value in data set [2] (setting [8]) is on record as 21.4; in data set [2] (setting [9]) it was 22.3; in data set [2] (setting [10]) it was 22.9; in data set [2] (setting [11]), 23.9; in data set [2] (setting [12]), 24.4; in data set [5] (20 mJ/cm^2) it was 20.9. The “20-μm pattern line width” value in data set [5] (40 mJ/cm^2) was found to be 22.1; in data set [5] (60 mJ/cm^2), 22.8; in data set [5] (80 mJ/cm^2) it was 23.3. In addition, the “Average transmittance (700 nm to 400 nm) Solution” value in data set [3] is 87.5%. Moreover, in data set [4], the “Average transmittance (700 nm to 400 nm) Transparent cured film” value was determined as 99.3%. Also, the “Transmittance (400 nm) Transparent cured film” value in data set [4] was 92.8%.
On to `CCCCCCC1(CCCCCC)c2cc(C(=O)c3ccccc3C)ccc2-c2ccc(C(C)=NOC(C)=O)cc21` [Compound 6], for which the “20-μm pattern line width” value in data set [2] (setting [8]) worked out at 19.7; in data set [2] (setting [9]) it was 20.2; in data set [2] (setting [10]) it was 21.1; in data set [2] (setting [11]), 21.7; in data set [2] (setting [12]) it was 22.7; in data set [5] (10 mJ/cm^2), 19.7. For the same compound, the “20-μm pattern line width” value in data set [5] (20 mJ/cm^2) is given as 20.2; in data set [5] (40 mJ/cm^2) it was 21.1; in data set [5] (60 mJ/cm^2), 21.7; in data set [5] (80 mJ/cm^2) it was 22.7. Besides, the “Average transmittance (700 nm to 400 nm) Solution” value in data set [3] was found to be 95.4%. For the same compound, the “Average transmittance (700 nm to 400 nm) Transparent cured film” value in data set [4] amounted to 97.3%. For the same compound, the “Transmittance (400 nm) Transparent cured film” value in data set [4] is recorded as 99.6%. The “transparency of photosensitive composition and formed product (in words)” value in data set [4] is “additionally excellent transparency”.
For `CCCCCCC1(CCCCCC)c2cc(C(=O)c3ccccc3)ccc2-c2ccc(C(C)=NOC(C)=O)cc21` [Compound 8], the “solubility (in words)” value in data set [1] is “additionally excellent solubility”. The “sensitivity” value in data set [2] is listed as “additionally high sensitivity to the active energy ray”. In addition, the “20-μm pattern line width” value is given as 19.6 in data set [2] (setting [8]); 20.1 in data set [2] (setting [9]); 21.7 in data set [2] (setting [10]); 22.7 in data set [2] (setting [11]); 23.0 in data set [2] (setting [12]); 19.6 in data set [5] (10 mJ/cm^2). In addition, the “20-μm pattern line width” value in data set [5] (20 mJ/cm^2) is 20.1; in data set [5] (40 mJ/cm^2) it was 21.7; in data set [5] (60 mJ/cm^2), 22.7; in data set [5] (80 mJ/cm^2), 23.0. Further, the “Average transmittance (700 nm to 400 nm) Solution” value in data set [3] is 95.4%. For the same compound, the “Average transmittance (700 nm to 400 nm) Transparent cured film” value in data set [4] turned out to be 100.0%. In data set [4], the “Transmittance (400 nm) Transparent cured film” value worked out at 100.0%. Also, in data set [4], the “transparency of photosensitive composition and formed product (in words)” value was “additionally excellent transparency”.
Take `CCCC1(CCC)c2ccccc2-c2ccc(/C(C)=N/OC(C)=O)cc21` [Compound 15]: in data set [6], the “Λ max (absorption maximum wavelength)” value was 315.0 nm, the “Absorption coefficient at 365 nm” value is 0.0 mL/mg/cm and the “Absorption coefficient at Λ max” value was 70.0 mL/mg/cm. This compound also returned a Decomposition point in data set [7] of 280.0 °C. In data set [1], the “Solubility Ethyl lactate” value is reported as “D (Less than 2 parts by weight of the photopolymerization initiator is dissolved.)”, the “Solubility PGMEA” value is reported as “C (An amount in the range of from 2 parts by weight or more to less than 5 parts by weight of the photopolymerization initiator is dissolved.)” and the “Solubility PGME” value was “D (Less than 2 parts by weight of the photopolymerization initiator is dissolved.)”.
Regarding `CC(=O)ON=C(C)c1ccc2c(c1)Cc1ccccc1-2` [Compound 16], in data set [6], the “Λ max (absorption maximum wavelength)” value worked out at 296.5 nm, the “Absorption coefficient at 365 nm” value worked out at 0.1 mL/mg/cm and the “Absorption coefficient at Λ max” value came to 97.7 mL/mg/cm. The compound further registered a Decomposition point in data set [7] of 240.9 °C. Moreover, in data set [1], the “Solubility Ethyl lactate” value was “C (An amount in the range of from 2 parts by weight or more to less than 5 parts by weight of the photopolymerization initiator is dissolved.)”, the “Solubility PGMEA” value is “B (An amount in the range of from 5 parts by weight or more to less than 10 parts by weight of the photopolymerization initiator is dissolved.)” and the “Solubility PGME” value is reported as “B (An amount in the range of from 5 parts by weight or more to less than 10 parts by weight of the photopolymerization initiator is dissolved.)”.
On to `CCCC1(CCC)c2cc(C(=NOC(C)=O)c3ccc(C(C)(C)C)cc3)ccc2-c2ccc([N+](=O)[O-])cc21` [Compound D-2], for which, in data set [2], the “sensitivity” value is “additionally high sensitivity to the active energy ray”. For the same compound, the “20-μm pattern line width” value in data set [5] (10 mJ/cm^2) is listed as 19.4; in data set [5] (20 mJ/cm^2), 20.4; in data set [5] (40 mJ/cm^2) it was 21.6; in data set [5] (60 mJ/cm^2) it was 22.1; in data set [5] (80 mJ/cm^2), 23.0.

The values are drawn from patent US9684238B2, “Fluorene-type compound, photopolymerization initiator comprising said fluorene-type compound, and photosensitive composition containing said photopolymerization initiator” (TOKYO OHKA KOGYO CO., LTD., priority 2012, dated 2017).
